According to patent publication US8853230B2, “Inhibitors of JAK” (Portola Pharmaceuticals, Inc., priority 2009, dated 2014):

What was measured:
[1] = molecular target: T1, TYK2 (Homo sapiens, UniProt P29597); assay: Z'-LYTE kinase assay, TYK2 tyrosine phosphorylation activity; assay type: biochemical
T1 construct: 5 μl of catalytic domain recombinant Kinase enzyme+Tyr peptide substrate (Invitrogen, Calif.); purchased Invitrogen
T1 sequence (P29597 897-1176 limits assumed): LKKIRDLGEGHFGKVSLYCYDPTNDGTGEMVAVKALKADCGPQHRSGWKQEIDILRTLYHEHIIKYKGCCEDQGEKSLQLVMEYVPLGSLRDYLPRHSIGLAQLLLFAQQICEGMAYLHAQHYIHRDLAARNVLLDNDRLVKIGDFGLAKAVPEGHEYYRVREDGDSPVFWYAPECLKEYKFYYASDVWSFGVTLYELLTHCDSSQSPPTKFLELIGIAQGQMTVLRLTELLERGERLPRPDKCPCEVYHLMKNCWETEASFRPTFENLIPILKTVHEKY
Outline: (§1)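 Z'-LYTE format using the Tyr6 peptide with recombinant catalytic-domain kinase; 1 h kinase reaction and 1 h development, both at room temperature. IC50s derived from ratiometric FRET signal.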

[2] = molecular target: T2, Syk (Homo sapiens, UniProt P43405); assay: Syk IC50 (Table 1; method not given); assay type: biochemical
[3] = molecular target: T3, JAK3 (Homo sapiens, UniProt P52333); assay: Z'-LYTE kinase assay, JAK3 tyrosine phosphorylation activity; assay type: biochemical
T3 construct: 5 μl of catalytic domain recombinant Kinase enzyme+Tyr peptide substrate (Invitrogen, Calif.); purchased Invitrogen
T3 sequence (P52333 822-1111 limits assumed): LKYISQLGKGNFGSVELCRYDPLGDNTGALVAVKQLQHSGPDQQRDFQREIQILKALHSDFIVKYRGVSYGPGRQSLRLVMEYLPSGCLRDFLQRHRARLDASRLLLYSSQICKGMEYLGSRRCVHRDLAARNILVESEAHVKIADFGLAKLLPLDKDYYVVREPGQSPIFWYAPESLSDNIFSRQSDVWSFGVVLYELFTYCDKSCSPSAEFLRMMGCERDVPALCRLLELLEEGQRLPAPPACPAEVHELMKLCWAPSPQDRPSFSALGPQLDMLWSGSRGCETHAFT
Outline: as §1

[4] = molecular target: T4, JAK2 (Homo sapiens, UniProt O60674); assay: Z'-LYTE kinase assay, JAK2 tyrosine phosphorylation activity; assay type: biochemical
T4 construct: 5 μl of catalytic domain recombinant Kinase enzyme+Tyr peptide substrate (Invitrogen, Calif.); purchased Invitrogen
T4 sequence (O60674 849-1124 limits assumed): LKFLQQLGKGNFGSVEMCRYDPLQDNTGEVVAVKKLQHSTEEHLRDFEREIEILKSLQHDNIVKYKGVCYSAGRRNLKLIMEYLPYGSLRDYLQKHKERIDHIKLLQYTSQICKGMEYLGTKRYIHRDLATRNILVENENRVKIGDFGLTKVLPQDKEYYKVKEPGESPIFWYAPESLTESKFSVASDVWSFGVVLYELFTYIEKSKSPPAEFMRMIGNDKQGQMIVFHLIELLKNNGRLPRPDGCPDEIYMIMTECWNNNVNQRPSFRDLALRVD
Outline: as §1

[5] = system: IL4-induced phospho STAT6 formation in Ramos B lymphocytes; assay: Inhibition of IL4-induced phospho STAT6 formation in Ramos B lymphocytes (flow cytometry); assay type: cell-based, human; conditions: Homo sapiens; for inhibition at 0.2 µM: 200 nM compound, read-out: % Inhibition of IL-4 Induced STAT6 Phosphorylation 200 nM; for inhibition at 1 µM: 1 μM compound, read-out: % Inhibition of IL-4 Induced STAT6 Phosphorylation 1 μM
Outline: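 Read-out: phospho-STAT6 (Y641) mean fluorescent intensity by intracellular flow cytometry, expressed as inhibition of the IL4-induced signal. Ramos B lymphocytes were given compound for 1 h at 37°C, then 1 ng/ml IL4 for 10 min, before fixation and methanol permeabilization.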

[6] = molecular target: T5, JAK1 (Homo sapiens, UniProt P23458); assay: Z'-LYTE kinase assay, JAK1 tyrosine phosphorylation activity; assay type: biochemical; conditions: read-out: JAK 1 IC50
T5 construct: 5 μl of catalytic domain recombinant Kinase enzyme+Tyr peptide substrate (Invitrogen, Calif.); purchased Invitrogen
T5 sequence (P23458 875-1153 limits assumed): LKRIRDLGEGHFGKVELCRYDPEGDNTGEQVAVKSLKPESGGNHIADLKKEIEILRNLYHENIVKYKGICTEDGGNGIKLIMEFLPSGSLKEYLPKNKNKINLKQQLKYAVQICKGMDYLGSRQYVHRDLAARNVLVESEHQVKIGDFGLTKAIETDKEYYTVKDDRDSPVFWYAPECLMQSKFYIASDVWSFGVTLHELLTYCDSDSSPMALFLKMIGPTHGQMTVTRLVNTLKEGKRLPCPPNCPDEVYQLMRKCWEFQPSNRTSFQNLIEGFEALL
Outline: as §1

[7] = molecular target: T2, Syk; assay: Syk kinase inhibition (Syk IC50 of Table 1); assay type: biochemical

| Structure (SMILES) | IC50 [1] | IC50 [2] | IC50 [3] | IC50 [4] | inhibition at 0.2 µM [5] | inhibition at 1 µM [5] | IC50 [6] | IC50 [7] |
| --- | --- | --- | --- | --- | --- | --- | --- | --- |
| CC(=O)Nc1cccc(Nc2ncc(C(N)=O)c(NCC3CCCN(C(=O)OCc4ccccc4)C3)n2)c1 (stereo not shown) [Example 115, Benzyl 3-((2-(3-acetamidophenylamino)-5-carbamoylpyrimidin-4-ylamino)methyl)piperidine-1-carboxylate] | 100 to 1000 nM | > 1000 nM | 10 to 100 nM | 100 to 1000 nM | 12.3% | 53.7% | 100 to 1000 nM |  |
| CC(=O)Nc1cccc(Nc2ncc(C(N)=O)c(NCC3CCCN(C(N)=O)C3)n2)c1 (stereo not shown) [Example 117, 2-(3-acetamidophenylamino)-4-((1-carbamoylpiperidin-3-yl)methylamino)pyrimidine-5-carboxamide] | 1 to 10 nM | 100 to 1000 nM | < 1 nM | 1 to 10 nM | 4.5% | 29.5% | 10 to 100 nM |  |
| CC(=O)Nc1cccc(Nc2ncc(C(N)=O)c(NCC3CCCN(C(C)=O)C3)n2)c1 (stereo not shown) [Example 119, 2-(3-acetamidophenylamino)-4-((1-acetylpiperidin-3-yl)methylamino)pyrimidine-5-carboxamide] | 10 to 100 nM | 100 to 1000 nM | 1 to 10 nM | 10 to 100 nM | 9% | 63% | 10 to 100 nM |  |
| C[C@@H](Nc1nc(Nc2cccc(NC(=O)N3CC=CC3)c2)ncc1C(N)=O)c1ccccc1 [Example 121, (R)-2-(3-(2,5-dihydro-1H-pyrrole-1-carboxamido)phenylamino)-4-(1-phenylethylamino)pyrimidine-5-carboxamide] | 10 to 100 nM | > 1000 nM | 1 to 10 nM | 10 to 100 nM | 18.3% | 61.7% | 100 to 1000 nM |  |
| C[C@@H](Nc1nc(Nc2cccc(NC(=O)N3CC[C@H](O)C3)c2)ncc1C(N)=O)c1ccccc1 [Example 128, 2-(3-((S)-3-hydroxypyrrolidine-1-carboxamido)phenylamino)-4-((R)-1-phenylethylamino)pyrimidine-5-carboxamide] | 10 to 100 nM | > 1000 nM | < 1 nM | 10 to 100 nM | 31.7% | 82.7% | 10 to 100 nM |  |
| COC(=O)Nc1cc(Nc2ncc(C(N)=O)c(N[C@H](C)c3ccccc3)n2)ccc1Cl [Example 129, (R)-methyl 5-(5-carbamoyl-4-(1-phenylethylamino)pyrimidin-2-ylamino)-2-chlorophenylcarbamate] | 100 to 1000 nM | > 1000 nM | 10 to 100 nM | 100 to 1000 nM | 4% | 16.7% | > 1000 nM |  |
| NC(=O)c1cnc(Nc2ccc(Cl)c(NC(=O)N3CCCC3)c2)nc1NCc1ccccc1 [Example 130, 4-(benzylamino)-2-(4-chloro-3-(pyrrolidine-1-carboxamido)phenylamino)pyrimidine-5-carboxamide] | 10 to 100 nM | > 1000 nM | 1 to 10 nM | 100 to 1000 nM | 0.7% | 19% | 100 to 1000 nM |  |
| CNC(=O)Nc1cc(Nc2ncc(C(N)=O)c(NCc3ccccc3)n2)ccc1Cl [Example 131, 4-(benzylamino)-2-(4-chloro-3-(3-methylureido)phenylamino)pyrimidine-5-carboxamide] | 10 to 100 nM | > 1000 nM | 1 to 10 nM | 100 to 1000 nM | 0.3% | 4.3% | > 1000 nM |  |
| CN(C)[C@@H]1CCN(C(=O)Nc2cccc(Nc3cc(N[C@H](CO)c4ccccc4)c(C(N)=O)cn3)c2)C1 [Example 312, 6-(3-((R)-3-(dimethylamino)pyrrolidine-1-carboxamido)phenylamino)-4-((S)-2-hydroxy-1-phenylethylamino)nicotinamide] |  |  | 1 to 10 nM | 100 to 1000 nM |  |  | > 1000 nM | > 1000 nM |
| CC(=O)Nc1cccc(Nc2cc(NCc3ccccc3F)c(C(N)=O)cn2)c1 [Example 340, 6-(3-acetamidophenylamino)-4-(2-fluorobenzylamino)nicotinamide] |  |  | 10 to 100 nM | 100 to 1000 nM |  |  | 100 to 1000 nM | > 1000 nM |
